In the data set the test system is CCRIS mutagenicity, Ames/micronucleus/aberration tests. Kind of data set: CCRIS mutagenicity studies.
Setting [1] is: Test System: AMES SALMONELLA TYPHIMURIUM, Strain/Indicator: TA100, Metabolic Activation: RAT, LIVER, S-9, PHENOBARBITAL AND 5,6-BENZOFLAVONE, Method: PREINCUBATION
[2] abbreviates: Test System: AMES SALMONELLA TYPHIMURIUM, Strain/Indicator: TA98, Metabolic Activation: NONE, Method: STANDARD PLATE.
Setting [3] is: Test System: AMES SALMONELLA TYPHIMURIUM, Strain/Indicator: TA100, Metabolic Activation: NONE, Method: STANDARD PLATE.
[4] abbreviates: Test System: AMES SALMONELLA TYPHIMURIUM, Strain/Indicator: TA98, Metabolic Activation: NONE, Method: PREINCUBATION
[5] abbreviates: Test System: AMES SALMONELLA TYPHIMURIUM, Strain/Indicator: TA1535, Metabolic Activation: NONE, Method: PREINCUBATION
Setting [6] is: Test System: AMES SALMONELLA TYPHIMURIUM, Strain/Indicator: TA1537, Metabolic Activation: NONE, Method: PREINCUBATION

Calls of active or inactive are those of the source. How the calls were made is not given here.

As to `Fc1ccc2ncccc2c1`, the mutagenic call was “active; positive, toxicity at 0.1 mg/ml. (information derived from a figure)” (End Point: In vitro chromosomal aberrations, Test System: Chinese hamster lung fibroblast cells (CHL/IU), Metabolic Activation: Rat, liver, S-9); “active; positive, cytotoxic at 0.2 mg/ml (information derived from a figure)” (End Point: In vitro micronucleus, Test System: Chinese hamster lung fibroblast cells (CHL/IU), Metabolic Activation: Rat, liver, S-9); “active; positive” (Test System: AMES SALMONELLA TYPHIMURIUM, Strain/Indicator: TA100, Metabolic Activation: RAT LIVER S-9, PHENOBARBITAL AND 5,6-BENZOFLAVONE, Method: PREINCUBATION); “active; positive” (Test System: AMES SALMONELLA TYPHIMURIUM, Strain/Indicator: TA100, Metabolic Activation: RAT, LIVER, S-9, AROCLOR 1254, Method: PREINCUBATION); “active; positive” under setting [1]; “active; positive” (Test System: AMES SALMONELLA TYPHIMURIUM, Strain/Indicator: TA100, Metabolic Activation: RAT, LIVER, S-9, PHENOBARBITAL AND 5,6-NAPHTHOFLAVONE, Method: PREINCUBATION). Moreover, where the note is “Test System: UDS RODENT HEPATOCYTES, Strain/Indicator: THY INCORP (NON-S-PHASE), Metabolic Activation: NONE, Method: AUTORADIOGRAPHY”, the mutagenic call is “active; positive”.

Regarding `O=[N+]([O-])c1cccc2c1c([N+](=O)[O-])cc1ccccc12`, the mutagenic call (Test System: AMES SALMONELLA TYPHIMURIUM, Strain/Indicator: TA98(1,8-DNP6), Metabolic Activation: NONE, Method: STANDARD PLATE) was “active; positive”; the mutagenic call (Test System: AMES SALMONELLA TYPHIMURIUM, Strain/Indicator: TA98(NR), Metabolic Activation: NONE, Method: STANDARD PLATE) was “active; positive”; the mutagenic call under setting [2] is “active; positive”; the mutagenic call under setting [3] was “active; positive”; the mutagenic call (Test System: AMES SALMONELLA TYPHIMURIUM, Strain/Indicator: YG1021, Metabolic Activation: NONE, Method: STANDARD PLATE) is “active; positive”; the mutagenic call (Test System: AMES SALMONELLA TYPHIMURIUM, Strain/Indicator: YG1024, Metabolic Activation: NONE, Method: STANDARD PLATE) was “active; positive”. The mutagenic call is “active; positive” (Test System: AMES SALMONELLA TYPHIMURIUM, Strain/Indicator: YG1026, Metabolic Activation: NONE, Method: STANDARD PLATE) and “active; positive” (Test System: AMES SALMONELLA TYPHIMURIUM, Strain/Indicator: YG1029, Metabolic Activation: NONE, Method: STANDARD PLATE).

Consider `CCC1(CC(=O)O)OCCc2c1[nH]c1c(C(C)O)cccc21` (stereo not given), for which the mutagenic call was “inactive; negative” under setting [2]; “inactive; negative” (Test System: AMES SALMONELLA TYPHIMURIUM, Strain/Indicator: TA98, Metabolic Activation: RAT, LIVER, S-9, Method: STANDARD PLATE); “inactive; negative” under setting [3]; “inactive; negative” (Test System: AMES SALMONELLA TYPHIMURIUM, Strain/Indicator: TA100, Metabolic Activation: RAT, LIVER, S-9, Method: STANDARD PLATE); “inactive; negative” (Test System: AMES SALMONELLA TYPHIMURIUM, Strain/Indicator: TA1535, Metabolic Activation: NONE, Method: STANDARD PLATE); “inactive; negative” (Test System: AMES SALMONELLA TYPHIMURIUM, Strain/Indicator: TA1535, Metabolic Activation: RAT, LIVER, S-9, Method: STANDARD PLATE). The mutagenic call (Test System: AMES SALMONELLA TYPHIMURIUM, Strain/Indicator: TA1537, Metabolic Activation: NONE, Method: STANDARD PLATE) is “inactive; negative”; the mutagenic call (Test System: AMES SALMONELLA TYPHIMURIUM, Strain/Indicator: TA1537, Metabolic Activation: RAT, LIVER, S-9, Method: STANDARD PLATE) was “inactive; negative”; the mutagenic call (Test System: E. COLI, Strain/Indicator: WP2 UVRA, Metabolic Activation: NONE, Method: STANDARD PLATE) was “inactive; negative”; the mutagenic call (Test System: E. COLI, Strain/Indicator: WP2 UVRA, Metabolic Activation: RAT, LIVER, S-9, Method: STANDARD PLATE) is “inactive; negative”.

As to `CC(C)Br`, the mutagenic call is, setting by setting: (End Point: In vitro micronucleus, Test System: Chinese Hamster Ovary (CHO-WBL) cells, Metabolic Activation: None) “inactive; negative”; under setting [4], “inactive; negative”; (Test System: AMES SALMONELLA TYPHIMURIUM, Strain/Indicator: TA98, Metabolic Activation: RAT LIVER S-9, PHENOBARBITAL AND BETA-NAPHTHOFLAVONE, Method: PREINCUBATION) “inactive; negative”; (Test System: AMES SALMONELLA TYPHIMURIUM, Strain/Indicator: TA98, Metabolic Activation: RAT, LIVER, S-9, PHENOBARBITAL AND 5,6-BENZOFLAVONE, Method: PREINCUBATION) “inactive; negative”; under setting [1], “active; positive”; under setting [5], “active; positive”. The mutagenic call is “active; positive” (Test System: AMES SALMONELLA TYPHIMURIUM, Strain/Indicator: TA1535, Metabolic Activation: RAT LIVER S-9, PHENOBARBITAL AND BETA-NAPHTHOFLAVONE, Method: PREINCUBATION); “active; positive” (Test System: AMES SALMONELLA TYPHIMURIUM, Strain/Indicator: TA1535, Metabolic Activation: RAT, LIVER, S-9, PHENOBARBITAL AND 5,6-BENZOFLAVONE, Method: PREINCUBATION); “inactive; negative” under setting [6]; “inactive; negative” (Test System: AMES SALMONELLA TYPHIMURIUM, Strain/Indicator: TA1537, Metabolic Activation: RAT LIVER S-9, PHENOBARBITAL AND BETA-NAPHTHOFLAVONE, Method: PREINCUBATION); “inactive; negative” (Test System: AMES SALMONELLA TYPHIMURIUM, Strain/Indicator: TA1537, Metabolic Activation: RAT, LIVER, S-9, PHENOBARBITAL AND 5,6-BENZOFLAVONE, Method: PREINCUBATION); “inactive; negative” (Test System: E. COLI, Strain/Indicator: WP2 UVRA, Metabolic Activation: NONE, Method: PREINCUBATION). For the same molecule, the mutagenic call (Test System: E. COLI, Strain/Indicator: WP2 UVRA, Metabolic Activation: RAT, LIVER, S-9, PHENOBARBITAL AND 5,6-BENZOFLAVONE, Method: PREINCUBATION) was “inactive; negative”.

`Oc1c(Br)c(Br)c(Br)c(Br)c1Br`: the mutagenic call was “inactive; negative” (Test System: AMES SALMONELLA TYPHIMURIUM, Strain/Indicator: TA98, Metabolic Activation: HAMSTER, LIVER, S-9, AROCLOR 1254 (10%), Method: PREINCUBATION); “inactive; negative” under setting [4]; “inactive; negative” (Test System: AMES SALMONELLA TYPHIMURIUM, Strain/Indicator: TA98, Metabolic Activation: RAT, LIVER, S-9, AROCLOR 1254 (10%), Method: PREINCUBATION); “inactive; negative” (Test System: AMES SALMONELLA TYPHIMURIUM, Strain/Indicator: TA100, Metabolic Activation: HAMSTER, LIVER, S-9, AROCLOR 1254 (10%), Method: PREINCUBATION); “inactive; negative” (Test System: AMES SALMONELLA TYPHIMURIUM, Strain/Indicator: TA100, Metabolic Activation: NONE, Method: PREINCUBATION); “inactive; negative” (Test System: AMES SALMONELLA TYPHIMURIUM, Strain/Indicator: TA100, Metabolic Activation: RAT, LIVER, S-9, AROCLOR 1254 (10%), Method: PREINCUBATION). Moreover, the mutagenic call (Test System: AMES SALMONELLA TYPHIMURIUM, Strain/Indicator: TA1535, Metabolic Activation: HAMSTER, LIVER, S-9, AROCLOR 1254 (10%), Method: PREINCUBATION) is “inactive; negative”; the mutagenic call under setting [5] is “inactive; negative”; the mutagenic call (Test System: AMES SALMONELLA TYPHIMURIUM, Strain/Indicator: TA1535, Metabolic Activation: RAT, LIVER, S-9, AROCLOR 1254 (10%), Method: PREINCUBATION) is “inactive; negative”; the mutagenic call (Test System: AMES SALMONELLA TYPHIMURIUM, Strain/Indicator: TA1537, Metabolic Activation: HAMSTER, LIVER, S-9, AROCLOR 1254 (10%), Method: PREINCUBATION) was “inactive; negative”; the mutagenic call under setting [6] is “inactive; negative”; the mutagenic call (Test System: AMES SALMONELLA TYPHIMURIUM, Strain/Indicator: TA1537, Metabolic Activation: RAT, LIVER, S-9, AROCLOR 1254 (10%), Method: PREINCUBATION) is “inactive; negative”.

Values taken from PubChem BioAssay AID1259407 (Chemical Carcinogenesis Research Information System (CCRIS), 2018).
